Laboratory results as given in US9249208B2, “Citrulline peptides derived from fibrin and recognized by rheumatoid arthritis specific autoantibodies, and the use thereof” (Biomerieux, priority 2004, dated 2016).
Marks after values point to notes of the source that are not given here. Where no end group is shown, it is not given here. [ ]: non-standard residue; d: D form. Cit = NC(=O)NCCC[C@H](N)C(=O)O

What was measured:
Type in all cases: binding, human
[1] = tested on: anti-citrullinated protein autoantibodies (ACPAs); assay: ELISA comparing amidated and nonamidated β60-74Cit60,72,74 with serum mixtures A and B; conditions: for delta OD: coating in PBS, versus noncitrullinated β60-74, mean of two experiments
From the text: ELISA plates were coated with the peptide β60-74Cit60,72,74, in which the C-terminal function of the carboxy-terminal citrullyl residue is not amidated (form carrying a terminal COOH function, hereinafter referred to as “nonamidated form”), with the peptide […], in which the C-terminal function of the carboxy-terminal citrullyl residue is amidated (form carrying a terminal CONH2 function, hereinafter referred to as “amidated form”) and the noncitrullinated peptide β60-74 (in which the C-terminal function of the carboxy-terminal arginyl residue is not amidated), all diluted in PBS. The serum mixtures A and B described in Example 1 were tested according to the method described in Example 2. As in Example 2, the specific reactivity of the peptide in nonamidated form or in amidated form corresponded to the difference between the OD obtained with these two citrullinated peptides and that obtained with the noncitrullinated peptide β60-74. […] The results correspond to the mean of two experiments, each comprising two determinations.

[2] = tested on: anti-citrullinated protein autoantibodies (ACPAs); assay: ELISA of citrullinated/native fibrin peptide pairs with serum mixtures A and B and control mixture (delta OD); conditions: mean of two determinations
Protocol: Each pair of peptides (citrullinated and noncitrullinated) was assayed by ELISA with a mixture, in equal parts, of 10 sera having no ACPAs (control mixture) and with the 2 mixtures A and B described in Example 1.
Each pair of peptides (native and citrullinated form) was tested on the same plate and a pair of control peptides—citrullinated “filaggrin” peptide cfc6 and its corresponding native peptide cf0 (Schellekens G A, 1998, mentioned above)—was included in each experiment, which made it possible to calculate an inter-assay coefficient of variation and to perform corrections.
All the incubations were carried out for 1 h at 4° C. and were followed by washing in PBS-0.1% Tween. The peroxidase activity was visualized with a solution of ortho-phenylenediamine (2 mg/ml—Sigma) in hydrogen peroxide (0.03%—Sigma). The reaction was stopped after 5 minutes by adding 4M sulfuric acid, and the optical density (OD) at 492 nm was measured by virtue of an automatic spectrophotometer (Multiskan, Thermo Labsystems).
The specific reactivity of the mixtures of sera with regard to the citrullinated peptides corresponded to the difference between the OD obtained with the citrullinated peptide and that obtained with the corresponding native peptide (delta OD). The results correspond to the mean of two determinations. Any citrullinated peptide making it possible to obtain a delta OD of greater than 0.250 for at least one of the two mixtures A and B after coating in at least one of the three buffers, was considered to be reactive.

[3] = tested on: anti-citrullinated protein autoantibodies (ACPAs); assay: ELISA of reactive citrullinated fibrin peptides with the 20 individual sera of mixtures A and B; conditions: for Number of positive sera: sera with delta OD not <0.25 out of sera tested (20, or 10 of mixture A only); for delta OD: best coating buffer per peptide
Protocol: The 14 peptides carrying the most reactive epitopes (delta OD≧0.5 for one or other of the mixtures of serum (A and B) with at least one of the three coating buffers) were tested independently with the 20 sera constituting the mixtures A and B, in order to evaluate the reactivity profile of each of these peptides. The tests were carried out by ELISA under the same conditions as in Example 2 above, with the exception that, for each pair of peptides, the coating buffer selected was that that had made it possible to obtain the strongest reactivity with respect to this peptide during the screening (the buffer for which the sum of the delta ODs obtained respectively for the serum mixtures A and B was at a maximum). […] Thus, for each serum, the dilution that made it possible to obtain an OD of 1 by ELISA on deiminated fibrinogen was selected (Nogueira L, 2002, mentioned above). The dilutions ranged from 1/20 to 1/2700.

[4] = Mixture A of sera 1/50, coating buffer PBS pH 7.4
[5] = Mixture A of sera 1/50, coating buffer acetate pH 5.0
[6] = Mixture A of sera 1/50, coating buffer carbonate pH 9.0
[7] = Mixture B of sera 1/50, coating buffer PBS pH 7.4
[8] = Mixture B of sera 1/50, coating buffer acetate pH 5.0
[9] = Mixture B of sera 1/50, coating buffer carbonate pH 9.0

Substance | delta OD (citrullinated minus native peptide, 492 nm) [2, 4] | delta OD (citrullinated minus native peptide, 492 nm) [2, 5] | delta OD (citrullinated minus native peptide, 492 nm) [2, 6] | delta OD (citrullinated minus native peptide, 492 nm) [2, 7] | delta OD (citrullinated minus native peptide, 492 nm) [2, 8] | delta OD (citrullinated minus native peptide, 492 nm) [2, 9] | Number of positive sera [3] | delta OD ([3]; serum 97.0796, dilution 1/500) | delta OD ([3]; serum 97.0311, dilution 1/200) | delta OD ([3]; serum 97.0459, dilution 1/60) | delta OD ([3]; serum 97.0506, dilution 1/75) | delta OD ([3]; serum 97.1474, dilution 1/20) | also measured
β60-74Cit60, 72, 74 nonamidated: citrullinated synthetic peptide, fibrin β-chain residues 60-74, C-terminal citrullyl not amidated (terminal COOH) (RPAPPPISGGGYRAR; HELM PEPTIDE1{[Cit].P.A.P.P.P.I.S.G.G.G.Y.[Cit].A.[Cit]}$$$$V2.0; N-terminus assumed; SMILES CC[C@H](C)[C@H](NC(=O)[C@@H]1CCCN1C(=O)[C@@H]1CCCN1C(=O)[C@@H]1CCCN1C(=O)[C@H](C)NC(=O)[C@@H]1CCCN1C(=O)[C@@H](N)CCCNC(N)=O)C(=O)N[C@@H](CO)C(=O)NCC(=O)NCC(=O)NCC(=O)N[C@@H](Cc1ccc(O)cc1)C(=O)N[C@@H](CCCNC(N)=O)C(=O)N[C@@H](C)C(=O)N[C@@H](CCCNC(N)=O)C(=O)O) | – | – | – | – | – | – | – | – | – | – | – | – | delta OD ([1]; Mixture A): 0.30; delta OD ([1]; Mixture B): 1.16
β433-447Cit436,445: citrullinated synthetic peptide, fibrin β-chain residues 433-447 (second series) (WYN[Cit]CHAANPNG[Cit]YY) | 0.58 | 0.41 | 0.67 | 0.00 | 0.00 | 0.03 | 2/10 | 0.71 | – | – | – | – | delta OD ([3]; serum 97.0388, dilution 1/50): 1.14
α183-197Cit186,190: citrullinated synthetic peptide, fibrin α-chain residues 183-197 (second series) (SCS[Cit]ALA[Cit]EVDLKDY) | 1.68 | 0.41 | 1.36 | 0.15 | 0.01 | 0.07 | 3/10 | – | 0.87 | 3.21 | 0.85 | – | –
β60-74Cit60,72,74: citrullinated synthetic peptide, fibrin β-chain residues 60-74, C-terminal citrullyl amidated; fits SEQ ID NO: 1 X1PAPPPISGGGYX2AX3 (XPAPPPISGGGYXAX; HELM PEPTIDE1{[Cit].P.A.P.P.P.I.S.G.G.G.Y.[Cit].A.[Cit].[am]}$$$$V2.0; N-terminus assumed; SMILES CC[C@H](C)[C@H](NC(=O)[C@@H]1CCCN1C(=O)[C@@H]1CCCN1C(=O)[C@@H]1CCCN1C(=O)[C@H](C)NC(=O)[C@@H]1CCCN1C(=O)[C@@H](N)CCCNC(N)=O)C(=O)N[C@@H](CO)C(=O)NCC(=O)NCC(=O)NCC(=O)N[C@@H](Cc1ccc(O)cc1)C(=O)N[C@@H](CCCNC(N)=O)C(=O)N[C@@H](C)C(=O)N[C@@H](CCCNC(N)=O)C(N)=O) | 2.06 | 1.02 | 1.27 | 2.69 | 2.83 | 2.72 | 14/20 | 0.36 | 1.93 | 0.71^c | 1.93 | 0.37 | delta OD ([1]; Mixture A): 2.13; delta OD ([1]; Mixture B): 2.74; reactivity of amidated versus nonamidated form ([1]; serum mixtures A and B, PBS coating): clearly greater than that of the nonamidated form; delta OD ([3]; serum 95.0256, dilution 1/35): 3.48; delta OD ([3]; serum 97.0169, dilution 1/400): 0.31; delta OD ([3]; serum 97.0244, dilution 1/2700): 1.23; delta OD ([3]; serum 97.0323, dilution 1/120): 1.73; delta OD ([3]; serum 97.0468, dilution 1/700): 1.08; delta OD ([3]; serum 97.0794, dilution 1/50): 0.75; delta OD ([3]; serum 97.0907, dilution 1/300): 1.17; delta OD ([3]; serum 97.1210, dilution 1/300): 3.33; delta OD ([3]; serum 97.1548, dilution 1/60): 1.48
α259-273Cit263,271: citrullinated synthetic peptide, fibrin α-chain residues 259-273 (second series) (MELE[Cit]PGGNEIT[Cit]GG) | 0.60 | 0.14 | 0.12 | 0.69 | 0.21 | 0.20 | 13/20 | – | 0.29 | – | – | 0.39 | delta OD ([3]; serum 97.0468, dilution 1/700): 0.32
β281-295Cit285,294: citrullinated synthetic peptide, fibrin β-chain residues 281-295 (second series) (VIQN[Cit]QDGSVDFG[Cit]K) | 0.60 | 0.12 | 0.61 | 0.75 | 0.11 | 0.71 | 6/20 | – | – | 2.22 | 1.80 | 0.36 | delta OD ([3]; serum 97.0323, dilution 1/120): 1.16; delta OD ([3]; serum 97.0524, dilution 1/200): 0.25; delta OD ([3]; serum 97.0794, dilution 1/50): 0.26
α411-425Cit425: citrullinated synthetic peptide, fibrin α-chain residues 411-425 (GTFEEVSGNVSPGT[Cit]) | 0.16 | 0.09 | 0.56 | 0.66 | 0.38 | 0.43 | 1/20 | – | – | – | – | – | delta OD ([3]; serum 97.1210, dilution 1/300): 0.84
α546-560Cit547: citrullinated synthetic peptide, fibrin α-chain residues 546-560 (S[Cit]GSESGIFTNTKES) | 0.74 | 0.38 | 0.33 | 0.15 | 0.05 | 0.16 | 2/10 | 1.18 | – | – | – | – | delta OD ([3]; serum 97.0530, dilution 1/50): 0.44
